Measurements published in article PMC7506137, “Selective Phosphodiesterase 1 Inhibitor BTTQ Reduces Blood Pressure in Spontaneously Hypertensive and Dahl Salt Sensitive Rats: Role of Peripheral Vasodilation” (Frontiers in Physiology, 2020).

Assays:
Sprague Dawley rats [1] = experiment: Rat ear temperature (vasodilation); type: in vivo
Experimental: Male Sprague Dawley rats at 6 to 7 weeks were dosed orally by p.o. gavage with different doses of BTTQ formulated in 1% hydroxyethlycellulose (Dow Corning, Midland, MI, United States) (w/v), 0.25% polysorbate 80 (Sigma-Aldrich, St. Louis, MO, United States) (v/v), and 0.05% antifoam (v/v; Dow Corning, Midland, MI, United States) in purified water. Following dosing, ear temperature was measured by using a k-type thermocouple probe digital thermometer (Cole Parmer) every hour for 6 h and then at 24 h. Blood samples for plasma exposure measurement were obtained at the same time. Blood was collected via a tail snip directly into a 20-μL EDTA-coated capillary and immediately spotted onto a Whatman DMPK-C DBS card (GE Healthcare Bio-Sciences). Tail snips were performed by removing approximately 1 mm of the tail by using a scalpel. Blood flow was initiated by gentle squeezing of the tail. No analgesia or anesthesia was used during blood collections. A single sample and spot were collected per time point. The DBS cards were allowed to dry for approximately 2 h at room temperature, after which the cards were placed in a zip-top bag, stored, and shipped at ambient temperature.
(§1) All data in this manuscript were presented as mean ± SEM with a significance level of p < 0.05, and n represents the number of individual animals. The significance of differences in concentration-response curves in the ear temperature and, myograft study were calculated using t-test, compare to the vehicle group. The EC50 was calculated using GraphPad Prism 8.3 using a 4-parameter logistic non-linear curve fit model. Single-dose rat telemetry data for normal and SHR rats and repeat-dose telemetry data in Dahls salt-sensitive rats were analyzed by two-way repeated measures ANOVA. Treatment group main effects were compared by Tukey’s HSD method. All telemetry data were analyzed with GraphPad Prism 8.3.

Dahl Salt Sensitive rats = experiment: Rat telemetry, blood pressure and heart rate; type: in vivo
Excerpt: (§2) Male Sprague Dawley (Taconic Biosciences) rats, Spontaneous Hypertensive rats (Charles River Laboratories, United States), and Dahl Salt Sensitive rats (Medical College of Wisconsin) were implanted with transmitters (HD S10; Data Science International) for collection of BP and heart rate (HR) data. The transmitters are capable of transmitting a BP signal via a pressure catheter inserted into the abdominal aorta. Initially, a baseline was established and recorded. Each rat was then removed from its recording cage and was dosed by p.o. gavage with vehicle or compound and the animals were then returned to the recording cage. Data sampling for BP and HR was carried out in intervals at selected time points for the duration of the experiment.
as §1

Sprague Dawley rats [2] = experiment: Rat telemetry, blood pressure and heart rate; type: in vivo
Excerpt: as §2, §1

[3] = tested on: Spontaneous Hypertensive rats (SHR); experiment: Rat telemetry, blood pressure and heart rate; type: in vivo
Excerpt: as §2, §1

PDE1 = experiment: Calculated target engagement from unbound drug concentration; type: in vivo, Rat; details: for % TE: 1 h, hill slope 1
[4] = Rat PK parameters (IV and oral); type: in vivo
[5] = 3 mg/kg twice daily oral for 21 days, high salt (4%) diet

Structure (SMILES): O=c1c2nnc(C3(C4CC4)CC3)n2c2c(n1CC1CC1)CCCC2 [BTTQ, 1-[1,1′-bi(cyclopropyl)-1-yl]-5-(cyclopropylmethyl)-6,7,8,9-tetrahydro[1,2,4]triazolo[4,3-A]quinoxaline-4(5H)-one]
- increase of ear temperature compared to the vehicle control (Sprague Dawley rats [1]; 3 mg/kg single oral dose, within 1 h): 14%
- ear temperature (Sprague Dawley rats [1]; 0.1, 0.3, and 1 mg/kg single oral dose): significant dose-dependent increase
- ED50 (Sprague Dawley rats [1]; Rattus norvegicus, single oral dose, 1 h time point, four parametric logistic equation, read-out: median effective dose (ED50), ear temperature): 0.14 mg/kg
- time at which ear temperature returned to baseline (Sprague Dawley rats [1]; all doses, single oral dose): 6 h
- time for which the increase in ear temperature stayed significant (Sprague Dawley rats [1]; single oral dose): up to 3 h
- MAP compared to the vehicle-treated group (Dahl Salt Sensitive rats; [5]): profound reduction
- heart rate (Dahl Salt Sensitive rats; [5]): elevation of heart rate
- lowering of blood pressure compared to the vehicle-treated group (Dahl Salt Sensitive rats; Dahl salt-sensitive rats): ~24 mmHg
- heart rate (Sprague Dawley rats [2]; 1 and 3 mg/kg twice daily oral): dose-dependent increase
- immediate decrease in MAP compared to the vehicle (Sprague Dawley rats [2]; 1 and 3 mg/kg twice daily oral (both groups), within 1 h of the first dose): about 5 mmHg
- time after second dose at which BP-lowering effect returned to baseline (Sprague Dawley rats [2]; high dose group (3 mg/kg twice daily oral)): 7 h
- lowering of blood pressure compared to the vehicle-treated group (Sprague Dawley rats [2]; normal Sprague Dawley rats): about 9 mmHg
- effect on BP ([3]; 0.03 mg/kg twice daily oral): did not show any effect
- effect on HR ([3]; 0.03 mg/kg twice daily oral): did not show any effect
- MAP ([3]; 0.03, 0.1, 0.3, 1, and 3 mg/kg twice daily oral, 24 h telemetry): dose-dependent decrease
- heart rate ([3]; 0.03-3 mg/kg twice daily oral): dose-dependent increase
- additional blood pressure lowering ([3]; BTTQ administered on top of ACE inhibitor): about 22 mmHg
- lowering of blood pressure compared to the vehicle-treated group ([3]; SHR): ~36 mmHg
- IC50 (PDE1; IC50 used for the target engagement calculation): 1.37 nM
- % TE (PDE1; dose 0.1 (mg/kg oral)): 88.55%
- % TE (PDE1; dose 0.3 (mg/kg oral)): 95.29%
- % TE (PDE1; dose 1 (mg/kg oral)): 98.54%
- % TE (PDE1; dose 3 (mg/kg oral)): 99.31%
- % of dose recovered in urine [4]: 0.4%
- clearance ([4]; in vivo, 1 mg/kg, IV 1 mpk, mean ± SD, 3 animals): 3.2 ± 0.6 mL/min/kg
- Vd ([4]; in vivo, 1 mg/kg, IV 1 mpk, mean ± SD, 3 animals, read-out: IV Vdss): 0.6 ± 0.04 L/kg
- half-life ([4]; in vivo, 1 mg/kg, IV 1 mpk, mean ± SD, 3 animals, read-out: IV t1/2 (converted)): 2.7 ± 0.5 h
- bioavailability ([4]; in vivo, IV 1 mpk and oral 10 mpk, mean ± SD, 3 animals): 58 ± 20%
